Source: patent US11028073B2, “Butylphthalide-telmisartan hybrids, preparation method and application thereof” (GUANGDONG LONGFU MEDICINE CO., LTD., priority 2017, dated 2021)

Legend:
AMPK = test: Western blot of phosphorylated AMPK (p-AMPK) in cerebral cortex at the infarct side of tMCAO rats; type: in vivo, rat; conditions: Compound C 20 mg/kg i.p. 30 min before I3
Description: (§1) The experimental method was manipulated as described in 2. At 30 min before the administration of I3, rats were intraperitoneally injected with 20 mg/kg of AMPK inhibitor Compound C, and the volume of the ipsilateral hemisphere infarct and the neurobehavioral score were determined at 48 h post-ischemia. Western blot analysis was performed on ischemic brain tissue to determine the content of phosphorylated AMPK (p-AMPK) in the cerebral cortex at the infarct side.

rats with tMCAO [1] = test: Infarct volume (TTC staining) in rats with transient middle cerebral artery occlusion (tMCAO); type: in vivo, rat
Description: (§2) Experimental method: 75 SD male rats weighing 300±20 g were raised under the condition of 25° C. and relative humidity of 60% to 75% for 1 week for experiment. Rats were randomized into 5 groups: sham group, vehicle group, drug administration group at 24 h after ischemia, drug administration group at 6 h after ischemia, drug administration group at 4 h after ischemia, respectively, with 15 animals in each group.
(§3) Establishment of transient middle cerebral artery occlusion (tMCAO) rat model: The rats were anesthetized by intraperitoneal injection of chloral hydrate, and lying on an operating table with limbs fixed with string. […] ECA was ligated and cut off, ICA was clamped at the distal end with an arterial clip, and then a small opening was cut at the intersection of ECA and ICA near the ECA. A nylon thread with paraffin coated on one end was inserted from the small cut opening into the internal carotid artery at the intersection of the internal and external carotid arteries and further into the anterior cerebral artery at the proximal end, to block the blood supply to the middle cerebral artery on this side. At 120 minutes after ischemia, the nylon thread was withdrawn at the incision of the external carotid artery to achieve the reperfusion of the middle cerebral artery. The room temperature during surgery was controlled at 25 to 27° C.
(§4) Administration method: administrating after surgery with a concentration of 1 mg/kg. Drug administration group at 4 h after ischemia was administrated at 4 h after ischemia, and once again after 24 h. Drug administration group at 6 h after ischemia was administrated at 6 h after ischemia, and once again after 24 h. Drug administration group at 24 h after ischemia was administrated once at 24 h after ischemia.
(§5) After the time window for administration of 13 was determined, administration at 4 hour post-ischemia was selected as the subsequent testing time point. 95 SD male rats were randomized into 7 groups: sham group, vehicle group, NBP group, Telm group, NBP+Telm group, 13 group and edaravone group, respectively. The surgical procedure was as described above, NBP (1 mg/kg), Telm (1 mg/kg), NBP (1 mg/kg)+Telm (1 mg/kg), 13 (1 mg/kg) and edaravone (3 mg/kg) were administrated at 4 hour post-ischemia, and once again at 24 h, respectively. The infarct volume and neurobehavioral score were determined at 48 h post-ischemia.
At 48 h post-ischemia, the rats were anesthetized with pentobarbital sodium, decapitated to get brain quickly, olfactory bulb, cerebellum and lower brain stem were removed, and coronal was cut into 6 slices. Then the brain slices were placed in the solution containing 4% TTC and 1 mol/L of K2HPO4, incubated at 37° C. for 30 min in the dark, during which the brain slices were flipped every 7 to 8 min. […] Images were taken after staining, and the infarct volume was calculated using an image analysis software. The percentage of infarct volume is calculated by the following formula: infarct area/total brain cross-sectional area×100%.
as §1
(§6) In FIG. 2, tMCAO models are established in male rats of 260 to 280 g (thread embolism is pulled out from the rats after 2 hour ischemia, resulting in reperfusion), 13 compound (1 mg/kg) is intravenously injected at 4 h post-ischemia, and intravenously injected again at 24 h post-ischemia. […]

rats with tMCAO [2] = test: Neurobehavioral function score in tMCAO rats; type: in vivo, rat
Description: as §2, §3, §4, §5
The neurobehavioral function score of tMCAO rats were scored at 48 h after ischemia. Criteria for scoring is as follows: 0 point, no symptoms of nerve damage; 1 point, inability of fully extending forepaw at the healthy side; 2 points, circling to the healthy side; 3 points, tilting toward the healthy side; 4 points, inability of spontaneous walking and losing consciousness.
as §1, §6

[3] = test system: rats with permanent middle cerebral artery occlusion; test: Infarct volume in rats with permanent middle cerebral artery occlusion (pMCAO); type: in vivo, rat; conditions: for Infarction rate (%): 72 h after ischemia
Description: (§7) Experimental method: Surgical method was described as the operation method for the above tMCAO. The thread embolism remained in the brain of rats without pulling out, and rotarod performance was tested every day. Brains were taken out at 72 h after ischemia for the determination of infarct volume and neurobehavioral score. The process of the rotarod performance test was as follows: rats were placed on a rotating rod of which the speed was accelerated from 4 rpm up to the maximum speed of 40 rpm within 5 minutes. Rats were trained for 3 to 7 days before model establishment, the rotarod performance was tested at 1, 2 and 3 days after pMCAO, respectively, and the falling time of rats were recorded.
(§8) In FIG. 3, pMCAO model is established on male rats of 260 to 280 g (thread embolism is not pulled out, resulting in permanent ischemia), the administration method is the same as that in FIG. 2, and the infract volume, neurobehavioral scores and rotarod test were determined at 72 h after ischemia, as described above.

[4] = test system: rats with permanent middle cerebral artery occlusion; test: Neurobehavioral score in pMCAO rats; type: in vivo, rat; conditions: for Neurobehavioral score: 72 h after ischemia
Description: as §7, §8

[5] = test system: rats with permanent middle cerebral artery occlusion; test: Rotarod performance test in pMCAO rats; type: in vivo, rat; conditions: in s (unit assumed)
Description: as §7, §8

TNF-α = test: LPS-induced TNF-α release in mouse primary microglia (ELISA); type: cell-based; conditions: 1 μM or 5 μM drug pre-administrated 3 h, then 100 ng/mL LPS 5 h; supernatant ELISA
Description: The primary microglia were extracted from the brain of mouse and cultured, were pre-administrated with 1 μM or 5 μM drugs for 3 h, and then stimulated with 100 ng/mL lipopolysaccharide (LPS) for 5 h. The supernatant of cell culture was extracted, and the expression level of TNF-α in the supernatant was determined by ELISA method.
(§9) In FIGS. 1A and 1B, mouse primary microglia are pre-incubated with 1 μM or 5 μM of test compounds for 3 hours, then stimulated with LPS for 5 hours, and the protein content of pro-inflammatory factor TNF-α is determined by ELISA method. In FIG. 1C, the activations of the compounds on Nrf2 are tested by Luciferase Reporter Assay.

Nrf2 = test: Neh2-Luciferase reporter assay for Nrf2 activation in BV2 cells; type: cell-based; conditions: for activity of intracellular Nrf2 (luciferase): 24 h incubation, BV2 cells
Description: BV2 cells were transfected with Neh2-Luciferase reporter gene plasmid for 6 h, replaced a normal serum-containing medium and cultured for 24 h, then incubated with drug for 24 h, and treated with Reporter Lysis Buffer for 20 min. The Reporter Lysis Buffer was added to a 96-well plate, and the activity of luciferase was measured.
as §9

[6] = administrated at 4 h post-ischemia and again at 24 h, 1 mg/kg (edaravone 3 mg/kg), determined 48 h post-ischemia
[7] = tMCAO rats, comparison groups, administrated at 4 h post-ischemia and again at 24 h, 1 mg/kg (edaravone 3 mg/kg), scored 48 h

c1cc(-c2cnn3cc(-c4ccc(OCCN5CCCCC5)cc4)cnc23)ccn1 [Compound C, reference compound]
AMPK activity (p-AMPK content in cerebral cortex at the infarct side) (AMPK): inhibit the increase of AMPK activity induced by I3

CC1=NN(c2ccccc2)C(=O)C1 [Edaravone, reference compound]
Infarction rate (%) (rats with tMCAO [1]; [6]): 6.183%
Neurobehavioral score (rats with tMCAO [2]; [7]): 1.556
Infarction rate (%) [3]: 16.7%
Neurobehavioral score [4]: 1.7
Falling time ([5]; Before modeling (baseline)): 292.17
Falling time ([5]; Day 1 after pMCAO): 56.33
Falling time ([5]; Day 2 after pMCAO): 64.00
Falling time ([5]; Day 3 after pMCAO): 74.00

CCCCC(OC(C)=O)c1ccccc1C(=O)OCCCCOC(=O)c1ccccc1-c1ccc(Cn2c(CCC)nc3c(C)cc(-c4nc5ccccc5n4C)cc32)cc1 (stereo not shown) [I2, 4-O-{2-[(1-acetoxyl)n-pentyl]benzoyl}butanediol telmisartan ester]
melting point: 83 °C

CCCCC(OC(C)=O)c1ccccc1C(=O)NCCCCCCCCNC(=O)c1ccccc1-c1ccc(Cn2c(CCC)nc3c(C)cc(-c4nc5ccccc5n4C)cc32)cc1 (stereo not shown) [I3, 8-N-{2-[(1-acetoxyl)n-pentyl]benzoyl}octanediamine telmisartan amide]
LPS-induced TNF-α release in mouse primary microglia (TNF-α): significantly inhibit LPS-induced TNF-α release
activity of intracellular Nrf2 (luciferase) (Nrf2; 1 μM): significantly activate the activity of intracellular Nrf2
activity of intracellular Nrf2 (luciferase) (Nrf2; 10 μM): significantly activate the activity of intracellular Nrf2
Infarction rate (%) (rats with tMCAO [1]; 1 mg/kg administrated at 6 h after ischemia and once again after 24 h, determined 48 h post-ischemia): 13.07%
Infarction rate (%) (rats with tMCAO [1]; 1 mg/kg administrated once at 24 h after ischemia, determined 48 h post-ischemia): 20.72%
infarct volume compared with NBP group, Telm group and NBP+Telm group (rats with tMCAO [1]; 4 h post-ischemia): more pronounced effect on reducing the infarct volume
Infarction rate (%) (rats with tMCAO [1]; I3 1 mg/kg i.v. at 4 h after ischemia, with or without Compound C 20 mg/kg i.p. 30 min before, 48 h post-ischemia): 6.655%
Infarction rate (%) (rats with tMCAO [1]; [6]): 6.655%
infarct volume compared with vehicle group (rats with tMCAO [1]; administrating at each time point (4 h, 6 h, 24 h)): significantly reduced the infarct volume
neurological function score compared with vehicle group (rats with tMCAO [2]; tMCAO (I/R) rats, administration at each time point): significantly reduced ischemia-induced neurological function score
Neurobehavioral score (rats with tMCAO [2]; tMCAO rats, 1 mg/kg, administrated after 4 h (time-window groups), scored 48 h after ischemia (0-4 points)): 2.385
Neurobehavioral score (rats with tMCAO [2]; tMCAO rats, 1 mg/kg, administrated after 6 h, scored 48 h after ischemia (0-4 points)): 1.867
Neurobehavioral score (rats with tMCAO [2]; tMCAO rats, 1 mg/kg, administrated after 24 h, scored 48 h after ischemia (0-4 points)): 1.182
neurological function compared with NBP, Telm and NBP+Telm (rats with tMCAO [2]; tMCAO rats, 4 h post-ischemia): more pronounced effect on improving the neurological function
Neurobehavioral score (rats with tMCAO [2]; tMCAO rats, I3 1 mg/kg i.v. at 4 h after ischemia, with or without Compound C 20 mg/kg i.p. 30 min before, 48 h post-ischemia): 1.182
Neurobehavioral score (rats with tMCAO [2]; [7]): 1.182
Infarction rate (%) [3]: 12.48%
infarct volume ([3]; in words): significantly reduced the infarct volume
Neurobehavioral score [4]: 1.6
neurobehavioral impairment ([4]; in words): improved neurobehavioral impairment
Falling time ([5]; Before modeling (baseline)): 279.10
Falling time ([5]; Day 1 after pMCAO): 68.63
Falling time ([5]; Day 2 after pMCAO): 94.00
Falling time ([5]; Day 3 after pMCAO): 125.13
AMPK activity (p-AMPK content in cerebral cortex at the infarct side) (AMPK): increase of AMPK activity
melting point: 94 to 95 °C

CCCCC(OC(C)=O)c1ccccc1C(=O)OCCCCCOC(=O)c1ccccc1-c1ccc(Cn2c(CCC)nc3c(C)cc(-c4nc5ccccc5n4C)cc32)cc1 (stereo not shown) [I4, 5-O-{2-[(1-acetoxyl)n-pentyl]benzoyl}pentanediol telmisartan ester]
melting point: 78 to 79 °C

CCCCC(OC(C)=O)c1ccccc1C(=O)OCCCCCCOC(=O)c1ccccc1-c1ccc(Cn2c(CCC)nc3c(C)cc(-c4nc5ccccc5n4C)cc32)cc1 (stereo not shown) [I5, 6-O-{2-[(1-acetoxyl)n-pentyl]benzoyl}hexanediol telmisartan ester]
melting point: 82 to 83 °C

CCCCC(OC(C)=O)c1ccccc1C(=O)OCCCCCCCCOC(=O)c1ccccc1-c1ccc(Cn2c(CCC)nc3c(C)cc(-c4nc5ccccc5n4C)cc32)cc1 (stereo not shown) [I6, 8-O-{2-[(1-acetoxyl)n-pentyl]benzoyl}octanediol telmisartan ester]
melting point: 83 to 84 °C

CCCCC(OC(C)=O)c1ccccc1C(=O)NCCCCCCNC(=O)c1ccccc1-c1ccc(Cn2c(CCC)nc3c(C)cc(-c4nc5ccccc5n4C)cc32)cc1 (stereo not shown) [I7, 6-N-{2-[(1-acetoxyl)n-pentyl]benzoyl}hexanediamine telmisartan amide]
activity of intracellular Nrf2 (luciferase) (Nrf2; 10 μM): significantly activate the activity of intracellular Nrf2
melting point: 96 to 98 °C

CCCCC(OC(C)=O)c1ccccc1C(=O)NCCCCNC(=O)c1ccccc1-c1ccc(Cn2c(CCC)nc3c(C)cc(-c4nc5ccccc5n4C)cc32)cc1 (stereo not shown) [I8, 4-N-{2-[(1-acetoxyl)n-pentyl]benzoyl}butanediamine telmisartan amide]
activity of intracellular Nrf2 (luciferase) (Nrf2; 10 μM): significantly activate the activity of intracellular Nrf2
melting point: 97 to 99 °C

CCCCc1nc(C)c(C(=O)NCCCCCCCCNC(=O)c2ccccc2C(CCCC)OC(C)=O)n1Cc1ccc(-c2ccccc2-c2nnn[nH]2)cc1 (stereo not shown) [I17]
melting point: 197 to 199 °C

CCCCC1OC(=O)c2ccccc21 (stereo not shown) [NBP, Butylphthalide]
Infarction rate (%) (rats with tMCAO [1]; [6]): 20.99%
Neurobehavioral score (rats with tMCAO [2]; [7]): 2.7

Cc1c(-c2cnccn2)ssc1=S [Oltipraz, reference compound]
activation of Nrf2 (Nrf2; concentration not given): significantly promote the activation of Nrf2

CCCc1nc2c(C)cc(-c3nc4ccccc4n3C)cc2n1Cc1ccc(-c2ccccc2C(=O)O)cc1 [Telm, Telmisartan]
Infarction rate (%) (rats with tMCAO [1]; [6]): 11.57%
Neurobehavioral score (rats with tMCAO [2]; [7]): 1
